{"source": "patent US12721832B2", "about": "“Anti-senescence plant polyphenol drug downregulating senescence-related secretory phenotype and use thereof” (BYHEALTH CO., LTD., priority 2021, dated 2026)", "key": {"[1]": {"test_system": "PSC27 cells", "experiment": "Population doubling test of PSC27", "format": "cell-based, human", "method": "The cells were damaged by BLEO at passage 10 (p10), and then PCC1 was added to the medium at day 8. The effect of PCC1 on cell proliferation potential is determined by comparative analysis of the population doubling (PD) of CTRL group, BLEO group, PCC1 group and BLEO/PCC1 group. ^, P>0.05; ***, P<0.001."}, "[2]": {"test_system": "senescent PSC27 cells", "experiment": "RNA-seq / GSEA expression profile of BLEO-induced senescent PSC27 cells", "format": "cell-based, human", "method": "Whole-transcriptome sequencing was performed on the primary human prostate stromal cell line PSC27 under different treatment conditions. Total RNA samples were obtained from stromal cells. Their integrity was verified by Bioanalyzer 2100 (Agilent), RNA was sequenced by Illumina HiSeq X10, and gene expression levels were quantified by software package rsem (https://deweylab.github.io/rsem/). Briefly, rRNA was depleted from RNA samples with the RiboMinus Eukaryote Kit (Qiagen, Valencia, Calif., USA); and according to the manufacturer's instructions, TruSeq Stranded Total RNA Preparation Kits (Illumina, San Diego, Calif.), USA) was used to construct a strand-specific RNA-seq library before deep sequencing.\nPaired-end transcriptomic reads were mapped to a reference genome (GRCh38/hg38), and reference-annotation was performed from Gencode v27 using the Bowtie tool. Duplicate reads were identified using the picard Tools (1.98) script to mark duplicates (https://github.com/broadinstitute/picard), and only non-duplicate reads were retained. Reference splice junctions were provided by reference transcriptome (Ensembl Build 73). FPKM values were calculated with Cufflinks, and Cufflinks maximum likelihood estimation function was used to call differential gene expression. Genes with significant changes in expression were defined by false discovery rate (FDR)-corrected P-values<0.05, and only Ensembl Genes 73 with status “Known” and biotype “coding” were used for downstream analysis.\nNext, Trim Galore (v0.3.0) (http://www.bioinformatics.babraham.ac.uk/projects/trim_galore/) was used to trim the reads, while the quality assessment was carried out by using FastQC (v0.10.0) (http://www.bioinformatics.bb src.ac.uk/projects/fastqc/). Subsequently, a preliminary analysis of the raw data was perform on a free online platform, Majorbio I-Sanger Cloud Platform (www.i-sanger.com), by using DAVID bioinformatics platform (https://david.ncifcrf.gov/) and Ingenuity Pathways Analysis (IPA) program (http://www.ingenuity.com/index.html), the raw data were deposited in the NCBI Gene Expression Omnibus (GEO) database with access code GSE156448.\nBased on the data obtained from the preliminary analysis of RNA-seq, analyzed and compared each differentially expressed significant gene, the genes were sorted using the “wald statistics” obtained from DESeq2, GSEA was performed on the sorting lists of all planning gene sets available in MSigDB (http://software.broadinstitute.org/gsea/msigdb). DESeq2 independent filtering was based on the average of normalized read counts to select genes with very low expression levels. The GSEA signature of SASP was as described in our previous publication (Zhang et al., 2018a)."}, "[3]": {"test_system": "cancer cells in the lesion", "experiment": "DNA damage and apoptosis in tumor lesions (LCM, caspase 3 cleavage IHC)", "format": "in vivo, mice", "source_text": "The signals of Caspase 3 cleaved […] in the lesion of each group of mice were in sharp contrast. Scale bar, 200 μm.\nTo investigate mechanisms directly supporting this senescence-associated pattern with expression and reversal of SASP in MIT-administered mice, we dissected tumors in animals treated with both drugs 7 days after the first PCC1 administration, and the time point of 7 days after administration was selected mainly because drug-resistant clones had not yet formed in cancer cells in the lesion at this time. […] As supporting evidence, when PCC1 was applied during treatment, caspase 3 cleavage activity was increased, which was a typical hallmark of apoptosis (FIG. 29)."}, "[4]": {"test_system": "PSC27 cells", "experiment": "CCK8 cell viability of proliferating and senescent PSC27 under increasing PCC1", "format": "cell-based, human", "method": "P value at each PCC1 concentration is the significant difference after comparison between CTRL and BLEO groups. **, P<0.01; ***, P<0.001; ****, P<0.0001.\nPharmacodynamic analysis was conducted on a natural product library (BY-HEALTH) with a total of 41 components, most of which were medicinal plant extracts and had anti-senescence potential. Each product was diluted to a 96-well plate according to a certain concentration gradient, and the density was 5000 cells per well. The medium uses DMEM, and the working concentration of natural product (or compound) is generally controlled at 1 μM to 1 mM. After 3-7 days of drug treatment, cell proliferation was measured with CCK-8 Cell Counting Kit (based on WST-8 principle, Vazyme), and cell apoptosis activity was determined with Caspase 3/7 Activity Kit (Promega)."}, "[5]": {"test_system": "aged C57BL/6 mice", "experiment": "Post-mortem pathological examination of aged mice", "format": "in vivo", "settings": "end of life", "method": "The researchers checked the cages daily and removed dead mice from the cages. Within 24 hours of animal death, cadavers (abdominal cavity, thoracic cavity, and skull) were opened and kept separately in 10% formalin for at least 7 days. Decomposed or destroyed bodies were excluded. The preserved cadavers were transported to the dedicated autopsy site for pathological examination. Tumor burden (sum of different types of tumors per mouse), disease burden (sum of different histopathological changes in major organs per mouse), severity of each lesion and inflammation (lymphocyte infiltration) were assessed."}, "[6]": {"settings": "BLEO/PCC1 vs BLEO group, fold change 2.0, P<0.01"}}}
{"molecule": "Oc1cc(O)c2c(c1)O[C@H](c1ccc(O)c(O)c1)[C@H](O)[C@H]2c1c(O)cc(O)c2c1O[C@H](c1ccc(O)c(O)c1)[C@H](O)[C@H]2c1c(O)cc(O)c2c1O[C@H](c1ccc(O)c(O)c1)[C@H](O)C2", "note": "[PCC1, procyanidin C1]", "values": [{"measurement": "population doubling (PD) ability", "setting": "[1]; BLEO and PCC1 combined treatment vs BLEO group", "result": "significantly increased"}, {"measurement": "effect on PD of proliferating cells", "setting": "[1]; PCC1 alone, proliferating cells", "result": "did not appear to affect"}, {"measurement": "number of genes significantly down-regulated", "setting": "[2]; [6]", "result": 4406, "unit": "genes"}, {"measurement": "number of genes up-regulated", "setting": "[2]; [6]", "result": 2766, "unit": "genes"}, {"measurement": "expression of SASP factors in senescent cells after treatment", "setting": "[2]; RNA-seq heatmap", "result": "generally decreased"}, {"measurement": "GSEA molecular signatures of SASP expression or NF-κB activation", "setting": "[2]; senescent cells after PCC1", "result": "significant repression"}, {"measurement": "indices of DNA damage or apoptosis", "setting": "[3]; PCC1 administered to MIT-treated animals", "result": "significantly enhanced"}, {"measurement": "caspase 3 cleavage activity", "setting": "[3]; PCC1 applied during MIT treatment", "result": "increased"}, {"measurement": "degree of DNA damage and apoptosis", "setting": "[3]; single agent vs placebo, 7 days after first PCC1 administration", "result": "could not induce DNA damage or cause apoptosis"}, {"measurement": "survival of proliferating cells", "setting": "[4]; proliferating PSC27, 200 μM PCC1", "result": "not significantly reduced"}, {"measurement": "percentage of surviving senescent cells", "setting": "[4]; senescent PSC27, 200 μM PCC1", "result": "approximately 10%"}, {"measurement": "concentration from which significant death of senescent cells is induced", "setting": "[4]; senescent vs control proliferating cells, CCK8", "result": 50, "unit": "µM"}, {"measurement": "prevalence of several age-related diseases and tumor burden at autopsy vs vehicle", "setting": "[5]", "result": "did not show statistical differences"}]}
